Assay results reported in patent US20250049741A1, “COMPOSITION FOR PREVENTING OR TREATING ALZHEIMER'S DISEASE COMPRISING PHOSPHOLIPASE C ACTIVATOR AS AN ACTIVE INGREDIENT” (Korea University Research and Business Foundation, priority 2021, published 2025).

Test system: PLCβ1
Assay: Western blot of PLCβ1 in rat hippocampal slices
Type: cell-based, Sprague-Dawley rats
Conditions: AβO+m-3M3FBS-treated rat hippocampal slices; similar to DMSO-treated slices
Protocol: Soluble AβO was prepared according to a previous study (BMC Biol. 2020; 18(1):7). Specifically, Aβ1-42 (Aβ) and a scrambled form of Aβ as a control peptide were purchased in powder form. Aβ and scrambled Aβ were dissolved for monomerization in 1,1,1,3,3,3-hexafluoro-2-propanol (HFIP, Sigma Aldrich, USA) at a final concentration of 1 mM, and the solution was incubated for 90 minutes. After the HFIP was evaporated, the remaining thin and clear film of Aβ or scrambled Aβ was dissolved in dimethyl sulfoxide (DMSO, Sigma Aldrich, USA) to prepare 5 mM Aβ or scrambled Aβ stocks, which were aliquoted and frozen at −20° C. Aβ or scrambled Aβ stocks were thawed and diluted to 100 μM in artificial cerebrospinal fluid (ACSF). Thereafter, Aβ or scrambled Aβ stocks were incubated for oligomerization for 18 hours. […]
Hippocampal PLCβ1 of SD rats and C57BL/6 or 5XFAD mice were prepared from homogenized hippocampi dissolved in 200 μL of RIPA buffer (Bio-Rad, USA), and were resolved on non-reducing 10% tris-glycine-sodium dodecyl sulfate-polyacrylamide gel electrophoresis (SDS-PAGE) gels (Bio-Rad, USA) using 4×Laemmli sample buffers (Bio-Rad, USA). […] Immunoreactivity was confirmed with enhanced chemiluminescence (Bio-Rad, USA) using a Fluorchem E system (ProteinSimple, USA) and analyzed with ImageJ software. […]

Cc1cc(C)c(S(=O)(=O)Nc2cccc(C(F)(F)F)c2)c(C)c1 [m-3M3FBS]
PLCβ1 protein levels in AβO-treated slices: completely restored
